Laboratory results taken from PMC9327644, “Optimized peptide extraction method for analysis of antimicrobial peptide Kn2-7/dKn2-7 stability in human serum by LC–MS” (Future Science OA, 2022).
Square brackets hold non-standard residues; d marks the D form. Peptide text beside a SMILES is read from it.

Assay: Time-course stability in 25% human serum by LC-MS
Assay type: in vitro ADME
Details: 25% human serum in RPMI media (165 mM MOPS, pH 7.0), 50 μg/ml peptide, 37°C water bath, precipitation with 1% formic acid in ethanol, LC-MS/MS (MRM), internal standard AMP 1018, mean ± SD, n = 3
Procedure: After parameters were optimized to reduce peptide loss during sample processing, the extent of AMP degradation by proteases in human serum was determined via a time-course experiment. Kn2-7 or dKn2-7 (50 μg/ml final concentration) was mixed with RPMI media alone or RPMI containing 25% human serum and incubated at 37°C in a water bath for up to 24 h. At predetermined time points (t = 0, 0.5, 1, 2, 3, 4 and 24 h), a 200 μl aliquot of each sample was collected and mixed with 400 μl of 1% formic acid in ethanol. Samples were incubated on ice for 15 min and centrifuged at 18,000 g for 10 min. Supernatants were transferred to fresh 500 μl tubes and stored at -20°C.
Samples were diluted eight-times with 3% ACN and 0.1% formic acid in water and spiked with internal standard AMP 1018 [15, 16] at 1 μg/ml immediately before LC–MS analysis. A 10 μl aliquot of each sample was analyzed using an Agilent ZORBAX Eclipse XDB 80Å C18 column (2.1 × 50 mm, 5 μm, Agilent, CA, USA) and a Shimadzu LC-20AD system (Shimadzu Corporation, Kyoto, Japan) coupled with a SCIEX API 4000 triple quadrupole mass spectrometer (AB Sciex, MA, USA). […]
MS was conducted in multiple reaction monitoring and positive electrospray ionization mode. […] AMPs Kn2-7/dKn2-7 and 1018 were quantified with the most abundant multiple reaction monitoring transitions m/z 558.7/120.2 and 385.18/239.1, respectively. […]

Row | Structure (SMILES) | peptide remaining at 24 h relative to the starting concentration (amount in 0 h sample)
1 | CC[C@@H](C)[C@@H](NC(=O)[C@H](N)Cc1ccccc1)C(=O)N[C@H](CCCCN)C(=O)N[C@H](CCCNC(=N)N)C(=O)N[C@@H](C(=O)N[C@H](C)C(=O)N[C@H](CCCNC(=N)N)C(=O)N[C@H](CC(C)C)C(=O)N[C@H](CC(C)C)C(=O)N[C@H](CCCNC(=N)N)C(=O)N[C@H](CCCCN)C(=O)N[C@@H](C(=O)N[C@H](Cc1ccccc1)C(=O)O)[C@H](C)CC)[C@H](C)CC [dKn2-7] (H-[dF][dI][dK][dR][dI][dA][dR][dL][dL][dR][dK][dI][dF]-OH) | 78.5% ± 2.7%
2 | CC[C@H](C)[C@H](NC(=O)[C@H](CCCNC(=N)N)NC(=O)[C@H](CCCCN)NC(=O)[C@@H](NC(=O)[C@@H](N)Cc1ccccc1)[C@@H](C)CC)C(=O)N[C@@H](C)C(=O)N[C@@H](CCCNC(=N)N)C(=O)N[C@@H](CC(C)C)C(=O)N[C@@H](CC(C)C)C(=O)N[C@@H](CCCNC(=N)N)C(=O)N[C@@H](CCCCN)C(=O)N[C@H](C(=O)N[C@@H](Cc1ccccc1)C(=O)O)[C@@H](C)CC [Kn2-7] (H-FIKRIARLLRKIF-OH) | 1.0% ± 0.4%
